Results published in patent US10039747B2, “Tetrahydrocyclopentapyrrole derivatives and a method for preparing the same” (Daewoong Pharmaceutical Co., Ltd., priority 2013, dated 2018).
Structures can show the parent of a compound that is named as a salt.

Biological target: T1, H+/K+-ATPase (Sus scrofa, UniProt P19156)
T1 construct: reaction buffer solution (60 mmol/l Tris-HCl buffer solution, pH 7.4) containing hog gastric vesicle; from tissue; host or cells: hog stomach (gastric vesicles, by centrifugation after Rabon et al. 1988)
Assay: Inhibition of proton pump (H+/K+-ATPase) activity in hog gastric vesicles
Assay type: biochemical
Settings: K+ specific H+/K+-ATPase activity, pH 7.4, 37° C. for 40 minutes, malachite green
Outline: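 Hog gastric vesicles in 60 mmol/l Tris-HCl pH 7.4 with compound, started with ATP, 40 min at 37° C. Pi read by malachite green at 570 nm; K+-specific activity taken as difference between +K+ and −K+ activity. IC50 from % inhibition by 4-parameter logistic fit.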

T1 sequence (P19156 2-1034 limits assumed): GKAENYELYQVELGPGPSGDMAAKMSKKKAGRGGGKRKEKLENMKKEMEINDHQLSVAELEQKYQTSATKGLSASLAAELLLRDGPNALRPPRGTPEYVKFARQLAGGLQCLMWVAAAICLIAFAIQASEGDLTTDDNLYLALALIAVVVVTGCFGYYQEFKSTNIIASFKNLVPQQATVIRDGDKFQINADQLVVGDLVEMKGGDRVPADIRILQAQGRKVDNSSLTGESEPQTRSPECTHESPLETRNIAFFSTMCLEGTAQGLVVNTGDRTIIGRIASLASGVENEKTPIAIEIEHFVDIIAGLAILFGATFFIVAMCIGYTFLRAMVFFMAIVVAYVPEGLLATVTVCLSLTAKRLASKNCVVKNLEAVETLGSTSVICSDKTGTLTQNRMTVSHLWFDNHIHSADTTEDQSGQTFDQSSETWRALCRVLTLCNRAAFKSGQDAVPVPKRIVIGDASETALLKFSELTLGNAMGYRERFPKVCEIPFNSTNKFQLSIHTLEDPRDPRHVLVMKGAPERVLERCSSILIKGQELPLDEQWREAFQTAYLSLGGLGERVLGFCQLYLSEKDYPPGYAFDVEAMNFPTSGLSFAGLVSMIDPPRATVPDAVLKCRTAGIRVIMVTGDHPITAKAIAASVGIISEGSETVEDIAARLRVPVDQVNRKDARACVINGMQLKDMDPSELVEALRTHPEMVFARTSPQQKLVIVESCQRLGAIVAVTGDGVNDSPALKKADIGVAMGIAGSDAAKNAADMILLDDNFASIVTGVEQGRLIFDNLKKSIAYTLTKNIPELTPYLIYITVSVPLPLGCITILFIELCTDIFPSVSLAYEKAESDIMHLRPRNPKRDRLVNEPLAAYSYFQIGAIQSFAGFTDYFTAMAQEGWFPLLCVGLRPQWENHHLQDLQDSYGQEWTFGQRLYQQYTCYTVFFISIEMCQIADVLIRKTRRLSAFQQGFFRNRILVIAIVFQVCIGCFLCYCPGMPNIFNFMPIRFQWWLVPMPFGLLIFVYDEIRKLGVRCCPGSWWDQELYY
T1 sequence (P18434 whole entry partner): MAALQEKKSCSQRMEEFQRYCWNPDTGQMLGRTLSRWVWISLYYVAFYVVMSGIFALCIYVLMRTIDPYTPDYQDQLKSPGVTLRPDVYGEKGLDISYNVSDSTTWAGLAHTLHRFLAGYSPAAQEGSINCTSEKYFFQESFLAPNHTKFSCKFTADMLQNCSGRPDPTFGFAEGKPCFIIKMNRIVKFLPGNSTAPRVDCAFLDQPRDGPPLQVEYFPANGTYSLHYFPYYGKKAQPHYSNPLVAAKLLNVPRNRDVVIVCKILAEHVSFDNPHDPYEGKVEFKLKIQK

Row | Compound | IC50 [µM]
1 | CNC1CCc2c1cn(S(=O)(=O)c1cccnc1)c2-c1ccccc1Cl (centres unmarked) [Example 89, 1-(2-chlorophenyl)-N-methyl-2-(pyridin-3-ylsulfonyl)-2,4,5,6-tetrahydrocyclopenta[c]pyrrol-4-amine] | 1.19
2 | CNC1CCc2c1cn(S(=O)(=O)c1cccnc1)c2-c1ccc(C)cc1F (centres unmarked) [Example 90, 1-(2-fluoro-4-methylphenyl)-N-methyl-2-(pyridin-3-ylsulfonyl)-2,4,5,6-tetrahydrocyclopenta[c]pyrrol-4-amine] | 0.52
3 | CNC1CCc2c1cn(S(=O)(=O)c1cccnc1)c2-c1ccc(Cl)cc1F (centres unmarked) [Example 91, 1-(4-chloro-2-fluorophenyl)-N-methyl-2-(pyridin-3-ylsulfonyl)-2,4,5,6-tetrahydrocyclopenta[c]pyrrol-4-amine] | 0.69
4 | CNC1CCc2c1cn(S(=O)(=O)c1cccnc1)c2-c1cc(Cl)ccc1Cl (centres unmarked) [Example 92, 1-(2,5-dichlorophenyl)-N-methyl-2-(pyridin-3-ylsulfonyl)-2,4,5,6-tetrahydrocyclopenta[c]pyrrol-4-amine] | 0.35
5 | CNC1CCc2c1cn(S(=O)(=O)c1cccnc1)c2-c1cc(Cl)cc(C)c1F (centres unmarked) [Example 93, 1-(5-chloro-2-fluoro-3-methylphenyl)-N-methyl-2-(pyridin-3-ylsulfonyl)-2,4,5,6-tetrahydrocyclopenta[c]pyrrol-4-amine] | 0.34
6 | CNC1CCc2c1cn(S(=O)(=O)c1cccnc1)c2-c1ccsc1 (centres unmarked) [Example 94, N-methyl-2-(pyridin-3-ylsulfonyl)-1-(thiophen-3-yl)-2,4,5,6-tetrahydrocyclopenta[c]pyrrol-4-amine] | 0.47
7 | CNC1CCc2c1cn(S(=O)(=O)c1cncc(Cl)c1)c2-c1ccccc1F (centres unmarked) [Example 95, 2-((5-chloropyridin-3-yl)sulfonyl)-1-(2-fluorophenyl)-N-methyl-2,4,5,6-tetrahydrocyclopenta[c]pyrrol-4-amine] | 1.72
8 | CNC1CCc2c1cn(S(=O)(=O)c1ccc(Oc3ccccc3)nc1)c2-c1ccccc1F (centres unmarked) [Example 96, 1-(2-fluorophenyl)-N-methyl-2-((6-phenoxypyridin-3-yl)sulfonyl)-2,4,5,6-tetrahydrocyclopenta[c]pyrrol-4-amine] | 0.8
9 | CNC1CCc2c1cn(S(=O)(=O)c1cnc3onc(C)c3c1)c2-c1ccccc1F (centres unmarked) [Example 97, 1-(2-fluorophenyl)-N-methyl-2-((3-methylisoxazolo[5,4-b]pyridin-5-yl)sulfonyl-)2,4,5,6-tetrahydrocyclopenta[c]pyrrol-4-amine] | 2.82
10 | CNC1CCc2c1cn(S(=O)(=O)c1ccc(OC)nc1Cl)c2-c1ccccc1F (centres unmarked) [Example 98, 2-((2-chloro-6-methoxypyridin-3-yl)sulfonyl)-1-(2-fluorophenyl)-N-methyl-2,4,5,6-tetrahydrocyclopenta[c]pyrrol-4-amine] | 3.62
11 | CNC1CCc2c1cn(S(=O)(=O)c1ccc(C)nc1Cl)c2-c1ccccc1F (centres unmarked) [Example 99, 2-((2-chloro-6-methylpyridin-3-yl)sulfonyl)-1-(2-fluorophenyl)-N-methyl-2,4,5,6-tetrahydrocyclopenta[c]pyrrol-4-amine] | 6.78
12 | CNC1CCc2c1cn(S(=O)(=O)c1cc(C)cnc1Cl)c2-c1ccccc1F (centres unmarked) [Example 100, 2-((2-chloro-5-methylpyridin-3-yl)sulfonyl)-1-(2-fluorophenyl)-N-methyl-2,4,5,6-tetrahydrocyclopenta[c]pyrrol-4-amine] | 7.24
13 | CNC1CCc2c1cn(S(=O)(=O)c1nccn1C)c2-c1ccccc1F (centres unmarked) [Example 101, 1-(2-fluorophenyl)-N-methyl-2-((1-methyl-1H-imidazol-2-yl)sulfonyl)-2,4,5,6-tetrahydrocyclopenta[c]pyrrol-4-amine] | 18.7
14 | CNC1CCc2c1cn(S(=O)(=O)c1cnc3c(c1)c(C)nn3C)c2-c1ccccc1F (centres unmarked) [Example 102, 2-((1,3-dimethyl-1H-pyrazolo[3,4-b]pyridin-5-yl)sulfonyl)-1-(2-fluorophenyl)-N-methyl-2,4,5,6-tetrahydrocyclopenta[c]pyrrol-4-amine] | 10
15 | CCNC1CCc2c1cn(S(=O)(=O)c1cccnc1)c2-c1ccccc1F (centres unmarked) [Example 103, N-ethyl-1-(2-fluorophenyl)-2-(pyridin-3-ylsulfonyl)-2,4,5,6-tetrahydrocyclopenta[c]pyrrol-4-amine] | 1.79
16 | CC(C)NC1CCc2c1cn(S(=O)(=O)c1cccnc1)c2-c1ccccc1F (centres unmarked) [Example 104, 1-(2-fluorophenyl)-N-isopropyl-2-(pyridin-3-ylsulfonyl)-2,4,5,6-tetrahydrocyclopenta[c]pyrrol-4-amine] | 50
17 | CNC1CC(C)(C)c2c1cn(S(=O)(=O)c1cccnc1)c2-c1ccccc1F (centres unmarked) [Example 105, 1-(2-fluorophenyl)-N,6,6-trimethyl-2-(pyridin-3-ylsulfonyl)-2,4,5,6-tetrahydrocyclopenta[c]pyrrol-4-amine] | 8.5
18 | CNC1CC(C)(C)c2c1cn(S(=O)(=O)c1cccc(Cl)c1)c2-c1ccccc1F (centres unmarked) [Example 106, 2-((3-chlorophenyl)sulfonyl)-1-(2-fluorophenyl)-N,6,6-trimethyl-2,4,5,6-tetrahydrocyclopenta[c]pyrrol-4-amine] | 3.3
19 | CNC1CCc2c1cn(Cc1cccc(Cl)c1)c2-c1ccccc1F (centres unmarked) [Example 107, 2-(3-chlorobenzyl)-1-(2-fluorophenyl)-N-methyl-2,4,5,6-tetrahydrocyclopenta[c]pyrrol-4-amine] | 2.86
20 | CNC1CCc2c1cn(Cc1cccc(F)c1)c2-c1ccccc1F (centres unmarked) [Example 108, 2-(3-fluorobenzyl)-1-(2-fluorophenyl)-N-methyl-2,4,5,6-tetrahydrocyclopenta[c]pyrrol-4-amine] | 5.65
21 | CNC1CCc2c1cn(Cc1ccccc1)c2-c1ccccc1F (centres unmarked) [Example 109, 2-benzyl-1-(2-fluorophenyl)-N-methyl-2,4,5,6-tetrahydrocyclopenta[c]pyrrol-4-amine] | 6.24
22 | CNC1CCc2c1cn(Cc1cccc(C)c1)c2-c1ccccc1F (centres unmarked) [Example 110, 1-(2-fluorophenyl)-N-methyl-2-(3-methylbenzyl)-2,4,5,6-tetrahydrocyclopenta[c]pyrrol-4-amine] | 2.89
23 | CNC1CCc2c1cn(Cc1cccc(OC)c1)c2-c1ccccc1F (centres unmarked) [Example 111, 1-(2-fluorophenyl)-2-(3-methoxybenzyl)-N-methyl-2,4,5,6-tetrahydrocyclopenta[c]pyrrol-4-amine] | 2.57
24 | CNC1CCc2c1cn(C(=O)c1cccc(Cl)c1)c2-c1ccc(F)cc1F (centres unmarked) [Example 114, (3-chlorophenyl)(1-(2,4-difluorophenyl)-4-(methylamino)-5,6-dihydrocyclopenta[c]pyrrol-2(4H)-yl)methanone] | 30.1
25 | CNC1NCc2c1cn(S(=O)(=O)c1cccc(Cl)c1)c2-c1ccccc1F (centres unmarked) [Example 115, 5-((3-chlorophenyl)sulfonyl)-4-(2-fluorophenyl)-N-methyl-1,2,3,5-tetrahydropyrrolo[3,4-c]pyrrol-1-amine hydrochloride] | 40
26 | Cc1oc(=O)oc1COC(=O)N(C)C1CCc2c1cn(S(=O)(=O)c1cccc(F)c1)c2-c1ccc(F)cc1F (centres unmarked) [Example 116, (5-methyl-2-oxo-1,3-dioxol-4-yl)methyl (1-(2,4-difluorophenyl)-2-((3-fluorophenyl)sulfonyl)-2,4,5,6-tetrahydrocyclopenta[c]pyrrol-4-yl)(methyl)carbamate] | 26.2
